# Test results taken from paper PMC9586926, “An efflux-susceptible antibiotic-adjuvant with systemic efficacy against mouse infections” (Scientific Reports, 2022).
# Where a SMILES comes first, the peptide text is derived from it. [ ]: non-standard residue; d: D form. The star is where a group is joined. 12Ado = NCCCCCCCCCCCC(=O)O; Decanoyl = CCCCCCCCCC(=O)*; Dab = NCC[C@H](N)C(=O)O
# How the values were obtained:
# P. aeruginosa = test: MIC, broth microdilution; format: cell-based, Pseudomonas aeruginosa; details: broth microdilution in LB, 18–24 h, 37 °C; n = 3 strains
# Text: (§1) Bacteria used in this study consisted of standard American Type Culture Collection (ATCC; Biological Industries, Beit Haemek, Israel) strains, clinically isolated (CI; Sourasky Medical Center, Tel Aviv, Israel) strains, as well as isogenic mutant strains. Gram-negative bacteria included Acinetobacter baumannii ATCC 19606; Escherichia coli ATCC 25922, 35218, CFT073, CI 14384, 16327, and the isogenic pair Ag100 (wild-type) and its efflux deficient mutant Ag100a (ΔacrAB); Klebsiella pneumoniae CI 1287, 224; Pseudomonas aeruginosa ATCC 27853, CI 1278, 8634; Salmonella enterica serovar Typhimurium ATCC 14028 (wild-type) and its isogenic efflux deficient mutant ΔacrAB. Bacteria were grown in Luria–Bertani broth (LB; 5 g/l NaCl, 5 g/l yeast extract, 10 g/l tryptone; pH = 7.0) at 37 °C with shaking. Over-night cultures were diluted 10-folds into fresh growth-medium and incubated at 37 °C with shaking until reaching mid-logarithmic phase. Then, bacterial concentrations were adjusted using O.D.600 nm measurements, and bacteria were subjected to the experimental procedures listed herein.
# (§2) MIC was determined according to the broth microdilution method: antimicrobials were subjected to serial twofold dilutions in LB medium, and incubated with 5 × 10^5 CFU/ml of bacteria (final volume of 200 µl) for 18–24 h at 37 °C. Then, O.D.620 nm was measured (BioTek Instruments Synergy HT; Winooski, VT, USA), and the MIC was defined as the lowest antimicrobial concentration for which no increase in O.D.620 nm was evident, compared to the untreated control.
# [1] = Acute toxicity, maximal tolerated dose; format: in vivo, mice; details: S.C., up to 40 mg/kg, seven-day monitoring
# Experimental: The study is reported in accordance with ARRIVE guidelines.
# The maximal tolerated dose (MTD) was determined after sub-cutaneous (S.C.) administration of lipopeptides solutions (0.2 ml). Mice (N = 3 per group) were monitored for up to 7 days and their physiological condition was scored on a scale of 1 to 6, in which a score of 1 indicates no apparent signs of distress, and a score of 6 signifies severe distress necessitating the mice immediate euthanasia.
# K. pneumoniae = test: MIC, broth microdilution; format: cell-based, Klebsiella pneumoniae; details: broth microdilution in LB, 18–24 h, 37 °C; n = 2 strains
# Text: as §1, §2
# K. pneumoniae 1287 = test: Combination with antibiotics, modified checkerboard titration; format: cell-based, Klebsiella pneumoniae
# Experimental: as §2
# Lipopeptides and antibiotics combinations were assessed using a modified version of the checkerboard titration method: Antibiotics MIC was determined in LB medium containing sub-inhibitory lipopeptide concentrations. The sensitization factor (SF)[46] was then calculated by SF = MICA/MICC, where “MICA” is the antibiotic MIC in absence of an adjuvant and “MICC “ is the antibiotic MIC in presence of an adjuvant, for a specified adjuvant concentration. Combinations were classified as synergistic when antibiotics MIC were decreased by > 4 folds. Alternatively, the fractional inhibitory concentration index (FICI) was calculated by FICI = MICC1/MICA1 + MICC2/MICA2, where “MICC1” and “MICC2” respectively specify the antibiotic and the adjuvant MIC values upon their combination, whereas “MICA1” and “MICA2” respectively specify the antibiotic and the adjuvant MIC values when tested individually. Combinations were classified as synergistic for FICI < 0.5.
# E. coli Ag100a (ΔacrAB) = test: MIC, broth microdilution, efflux deficient mutant; format: cell-based, Escherichia coli; details: E. coli Ag100a (ΔacrAB) versus Ag100
# Text: as §1
# MIC was determined according to the broth microdilution method: antimicrobials were subjected to serial twofold dilutions in LB medium, and incubated with 5 × 10^5 CFU/ml of bacteria (final volume of 200 µl) for 18–24 h at 37 °C. […]
# E. coli 25922 = test: Cytoplasmic membrane depolarization, DiSC3(5) fluorescence; format: cell-based, Escherichia coli; details: C10BBc12B up to 10 µM; PMB 2.5 µM
# Experimental: Lipopeptides aptitude to depolarize the CM was evaluated using fluorescent measurements of the transmembrane potential sensitive dye 3,3′-Dipropylthiadicarbocyanine iodide (DiSC3(5))[69]. Bacteria (O.D.600 nm = 0.1) were washed by centrifugation at 10,000 RCF for 5 min, supernatant aspiration, and pellet resuspension in 5 mM HEPES containing 20 mM glucose, 50 mM KCl and 0.2 mM EDTA (pH = 7.2). This suspension was mixed with DiSC3(5) (400 µM in DMSO) to reach a final DiSC3(5) concentration of 4 µM and was incubated in the dark for 1 h at 37 °C with shaking. Then, 180 µl of this mixture were dispensed into black microtiter plates and fluorescence was recorded (excitation: 622 nm; emission: 670 nm) at 37 °C with shaking until baseline stabilization (BioTek Instruments Synergy HT; Winooski, VT, USA). Finally, 20 µl of HEPES containing serial twofold dilutions of lipopeptides were added and fluorescence was recorded for up to 30 min at the same conditions.
# [2] = Binding to lipopolysaccharide, displacement of mono-dansylated polymyxin B; design: species or system E. coli; details: 2 µM DPMB, 3 µg/ml LPS, 1.5 h, compared with PMB; two independent experiments
# Experimental: Affinity to lipopolysaccharide (LPS) was assessed using fluorescent measurements of displaced mono-dansylated polymyxin B (DPMB)[68]. 180 µl of 5 mM HEPES containing 2 µM DPMB and 3 µg/ml LPS (from E. coli) were dispensed into black microtiter plates and mixed with 20 µl of HEPES containing serial twofold dilutions of lipopeptides. Plates were incubated in the dark for 1.5 h at room-temperature and fluorescence (excitation: 340 nm; emission: 485 nm) was recorded immediately thereafter (BioTek Instruments Synergy HT; Winooski, VT, USA).
# murine RBC = test: Hemolysis; format: cell-based; details: 1% hematocrit murine RBC, 3 h, 37 °C
# Experimental: Permeabilization of red blood cells (RBC) was evaluated using absorbance measurements of extracellular hemoglobin. Serial twofold dilutions of lipopeptides were incubated with 1% hematocrit of murine RBC for 3 h at 37 °C with shaking. Samples were then centrifuged at 20,000 RCF for 5 min, and absorbance of the supernatants was measured at 450 nm (BioTek Instruments Synergy HT; Winooski, VT, USA). Percent hemolysis was then calculated by (AS − AN)/(AP − AN) × 100; where AS, AN, and AP represent the absorbance of the sample, negative control (PBS) and positive control (Milli-Q water), respectively. LC50 values were extracted from trend-lines generated for linear-regions of plots correlating lipopeptide concentrations and percent hemolysis.
# E. coli = test: MIC, broth microdilution; format: cell-based, Escherichia coli; details: broth microdilution in LB, 18–24 h, 37 °C; n = 4 strains; published data in bold (not discernible)
# Text: as §1, §2
compound,measurement,setting,value
"CCCCCCCCCC(=O)N[C@@H](CCN)C(=O)N[C@@H](CCN)C(=O)NCCCCCCCCCCCC(=O)N[C@@H](CCN)C(N)=O [C10BBc12B, decanoyl-bis.diaminobutyrate-aminododecanoyl-diaminobutyrate-amide] (Decanoyl-[Dab][Dab][12Ado][Dab]-NH2)",MIC P. aeruginosa (n=3),P. aeruginosa,≥ 50 µM
same,signs of distress,[1],no apparent physiological signs of distress
same,MIC K. pneumoniae (n=2),K. pneumoniae,> 50 µM
same,sensitization efficiency to rifampin,K. pneumoniae 1287,"130,000 folds"
same,MIC change against efflux deficient mutant versus wild-type,E. coli Ag100a (ΔacrAB),eightfold reduction in MIC value
same,CM depolarization (trans-membrane potential),E. coli 25922,unable to affect the trans-membrane potential
same,displacement of LPS-bound DPMB,[2],inferior ability
same,LC50 Erythrocytes (50% hemolysis),murine RBC,> 50 µM
same,MIC E. coli (n=4),E. coli,50 µM
